In patent publication EP4635949A1 (Jiangsu NHWA Pharmaceutical Co., Ltd, priority 2022, dated 2024):
Like-named read-outs stand apart in the source and are kept apart here.

Tests used:
[1] = target: T1, OX2 receptor (Homo sapiens, UniProt O43614); test: Orexin target function test (Cisbio HTRF IP-one), CHO-K1-OX2 cells, antagonism of EC80 Orexin 2 receptor agonist; assay type: cell-based
T1 construct: host or cells: CHO-K1
T1 sequence (O43614 1-444): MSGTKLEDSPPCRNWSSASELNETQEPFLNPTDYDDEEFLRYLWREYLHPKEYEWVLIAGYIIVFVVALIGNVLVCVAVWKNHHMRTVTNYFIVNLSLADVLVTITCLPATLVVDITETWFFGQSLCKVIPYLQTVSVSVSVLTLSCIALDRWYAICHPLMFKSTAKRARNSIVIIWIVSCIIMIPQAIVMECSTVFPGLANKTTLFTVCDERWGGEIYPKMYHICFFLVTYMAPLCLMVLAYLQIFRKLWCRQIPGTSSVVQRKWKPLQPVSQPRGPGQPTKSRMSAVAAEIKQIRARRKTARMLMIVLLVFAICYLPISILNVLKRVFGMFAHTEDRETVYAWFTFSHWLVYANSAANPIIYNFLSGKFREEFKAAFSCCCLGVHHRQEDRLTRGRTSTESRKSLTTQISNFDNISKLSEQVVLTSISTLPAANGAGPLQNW
Procedure: (§1) Using Cisbio HTRF IP-one kit to detect the changes in IP-one concentration of orexin receptor (OX1/OX2) signaling pathway by microplate reader, and calculating the IC50 value of the compound to evaluate the antagonistic effect of the compound on OX1 and OX2 receptors.
(§2) The cells were centrifuged at 1000 rpm for 5 minutes and the supernatant was discarded. 3 mL of PBS was added, and gently blown with a pipette to mix. After centrifugation at 1000 rpm for 5 minutes again, the supernatant was discarded. […] Based on the antagonistic effect values of the compound samples at different concentrations, the GraphPad Prism software was used to fit the orexin receptor antagonism curve of the compound samples and calculate the IC50.

[2] = in vivo; conditions: male, SD, rat, plasma
[3] = target: T2, OX1 receptor (Homo sapiens, UniProt O43613); test: Orexin target function test (Cisbio HTRF IP-one), CHO-K1-OX1 cells, antagonism of EC80 Orexin A; assay type: cell-based
T2 construct: host or cells: CHO-K1
T2 sequence (O43613 1-425): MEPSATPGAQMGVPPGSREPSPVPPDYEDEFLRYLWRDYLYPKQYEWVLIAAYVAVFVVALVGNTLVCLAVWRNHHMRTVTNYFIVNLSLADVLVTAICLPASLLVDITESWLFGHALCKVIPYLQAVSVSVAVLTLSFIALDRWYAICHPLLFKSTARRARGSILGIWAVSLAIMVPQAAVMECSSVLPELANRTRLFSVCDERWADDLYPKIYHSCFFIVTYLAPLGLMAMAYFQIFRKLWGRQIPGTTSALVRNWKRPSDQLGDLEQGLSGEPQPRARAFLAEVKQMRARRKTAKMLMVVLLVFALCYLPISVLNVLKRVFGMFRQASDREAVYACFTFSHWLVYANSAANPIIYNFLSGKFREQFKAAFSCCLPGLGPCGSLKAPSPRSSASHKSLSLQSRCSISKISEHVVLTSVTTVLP
Procedure: as §1, §2

[4] = Blood-brain barrier permeability of the test substance in rats; conditions: male, SD, rat, oral, 30 mg/kg; for Kp at 0.25 h: brain/plasma
Procedure: (§3) Twelve male SD rats were randomly divided into 4 groups, with 3 rats in each group. They were fasted for 8 hours before the test and had free access to water. The rats were intragastrically administered with 30 mg/kg of the test substance solution, and 0.3 mL of blood was collected from the jugular venous plexus of the rats before and 0.25 hours after administration. The rats were then anesthetized, the chest cavity was opened, the right atrial appendage was cut, and the blood was rapidly perfused from the back of the left ventricle. When the outflowing liquid was transparent and bloodless, the perfusion could be stopped, and the brain tissue was removed, dried with filter paper, weighed, and homogenized with an appropriate amount of physiological saline (1:4, v/v) to prepare a brain tissue homogenate. The whole blood sample was centrifuged at 4000 r/min for 10 min to separate the plasma.
(§4) The established LC-MS/MS method is used to detect the concentration of the test substance in plasma and brain tissue homogenate. The brain-to-blood ratio (Kb/p) of the test substance can be obtained by dividing the drug concentration in brain tissue by the drug concentration in plasma.

[5] = in vivo; conditions: male, SD, rat, 30 mg/kg
Procedure: as §3, §4

[6] = male, SD, rat, in vivo, 30 mg/kg
Procedure: as §3, §4

[7] = CHO-K1-OX2 cells, IP-one, read-out: hOX2R IC50
[8] = CHO-K1-OX1 cells, IP-one, read-out: hOXIR IC50

Compound	Selectivity [1]	IC50 [1, 7] [nM]	AUC(0-t) ([2]; iv, 1 mg/kg) [ng·h/mL]	Cmax ([2]; iv, 1 mg/kg) [ng/mL]	AUC(0-t) ([2]; po, 30 mg/kg) [ng·h/mL]	Cmax ([2]; po, 30 mg/kg) [ng/mL]	bioavailability ([2]; po, 30 mg/kg) [%]	IC50 [3, 8] [nM]	concentration at 0.25 h ([4]; brain) [ng/g]	Kp at 0.25 h [4]	concentration at 0.25 h ([4]; plasma) [ng/mL]	Kp [5]	IC50 [1] [nM]	IC50 [3] [nM]	Brain [6] [ng/g]	Plasma [6] [ng/mL]
COc1ccc(C(=O)N2CC3C=C(c4nc(C)cnc4OC)CC3C2)c(-n2nccn2)c1 (centres unmarked) [Compound 41, (4-methoxy-2-(2H-1,2,3-triazol-2-yl)phenyl)(5-(3-methoxy-6-methylpyrazin-2-yl)-3,3a,4,6a-tetrahydrocyclopenta[c]pyrrol-2(1H)-yl)methanone]	87	19	389	706	5600	3980	48	1650	990	0.39	2570					
COc1ncc(C)nc1C1=CC2CN(C(=O)c3ccc(F)cc3-n3nccn3)CC2C1 (centres unmarked) [Compound 44, [4-fluoro-2-(2H-1,2,3-triazol-2-yl)phenyl][5-(3-methoxy-6-methylpyrazin-2-yl)-3,3a,4,6a-tetrahydrocyclopenta[c]pyrrol-2(1H)-yl]methanone]	133											0.98	18	2400	231.3	235.6
COc1ncc(C)nc1C1=CC2CN(C(=O)c3c(F)cccc3-n3nccn3)CC2C1 (centres unmarked) [Compound 39, (2-fluoro-6-(2H-1,2,3-triazol-2-yl)phenyl)(5-(3-methoxy-6-methylpyrazin-2-yl)-3,3a,4,6a-tetrahydrocyclopenta[c]pyrrol-2(1H)-yl)methanone]	60	20						1200	285	0.28	1020					
COc1cc(C(=O)N2CC3C=C(c4nc(C)cnc4OC)CC3C2)c(-n2nccn2)cn1 (centres unmarked) [Compound 42, (2-methoxy-5-(2H-1,2,3-triazol-2-yl)pyridin-4-yl)(5-(3-methoxy-6-methylpyrazin-2-yl)-3,3a,4,6a-tetrahydrocyclopenta[c]pyrrol-2(1H)-yl)methanone]	54	24						1300	193	0.52	372					
